Structures are written as SMILES. pEC50: −log10 of the molar value.

Series [1] deals with Glucagon-like peptide 1 receptor (Homo sapiens, UniProt P43220). Briefly: Agonist activity at human GLP-1R expressed in HEK293 cells assessed as accumulation of cAMP preincubated for 30 mins followed by d2-labeled cAMP addition and anti-cAMP cryptate addition measured after 60 mins by HTRF assay. The class given is functional, cell-based. On the technique in general: In TR-FRET formats the signal depends on donor and acceptor labels being close together.

Series [2] is described as follows: Metabolic stability in human liver microsomes assessed as half life at […] incubated upto 45 mins in presence of NADPH by LC-MS/MS analysis. The class given is ADME, Microsome. In general terms: Liver microsomes are a subcellular fraction often used to study metabolism.

Sequence of Glucagon-like peptide 1 receptor (P43220 whole entry): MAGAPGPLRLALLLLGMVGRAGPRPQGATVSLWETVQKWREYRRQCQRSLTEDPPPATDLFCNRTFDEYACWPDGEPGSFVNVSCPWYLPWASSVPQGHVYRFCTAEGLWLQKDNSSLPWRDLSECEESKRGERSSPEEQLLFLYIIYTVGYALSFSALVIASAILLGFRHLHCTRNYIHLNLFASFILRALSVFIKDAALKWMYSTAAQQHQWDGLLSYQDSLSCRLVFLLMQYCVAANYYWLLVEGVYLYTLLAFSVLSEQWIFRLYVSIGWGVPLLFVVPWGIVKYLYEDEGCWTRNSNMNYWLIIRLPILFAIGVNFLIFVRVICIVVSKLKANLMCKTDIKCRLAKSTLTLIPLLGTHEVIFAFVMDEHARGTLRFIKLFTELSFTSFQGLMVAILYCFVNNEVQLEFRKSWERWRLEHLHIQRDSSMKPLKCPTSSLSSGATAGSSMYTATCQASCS

As a reminder, the pEC50 is the negative decadic logarithm of the EC50, by convention in mol/L. Regarding `O=C(O)c1ccc2nc(CN3CCC(c4cccc(OCc5ccc(C6(F)COC6)cc5)n4)CC3)n(C[C@@H]3CCO3)c2c1`, the pEC50 in series [1] was 10.10.
Same read-out and setting: the figure for `O=C(O)c1ccc2nc(CN3CCC(c4cccc(OCc5ccc(C6(O)COC6)cc5)n4)CC3)n(C[C@@H]3CCO3)c2c1` is 8.51; for `CC(=O)c1ccc(COc2cccc(C3CCN(Cc4nc5ccc(C(=O)O)cc5n4C[C@@H]4CCO4)CC3)n2)c(F)c1` it is 9.27.
Still for that read-out and setting: then `N#CCC1(n2c(CC3CCC(c4cccc(OCc5ccc(C6COC6)cc5F)n4)CC3)nc3ccc(C(=O)O)cc32)CC1` (configuration not stated), with 10.10.
Broadly, the half-life is how long it takes for the measured level to halve. On to `O=C(O)c1ccc2nc(CN3CCC(c4cccc(OCc5ccc(C6COC6)cc5Cl)n4)CC3)n(C[C@@H]3CCO3)c2c1`, for which the half-life in series [2] turned out to be 2.06 h.
With `CN1CCC(C(=O)c2ccc(COc3cccc(C4CCN(Cc5nc6ccc(C(=O)O)cc6n5C[C@@H]5CCO5)CC4)n3)c(F)c2)CC1`, the pEC50 in series [1] was less than 6.00.
With `O=C(O)c1ccc2nc(CN3CCC(c4cccc(OCc5ccc(C6COC6)cc5OCC(F)(F)F)n4)CC3)n(C[C@@H]3CCO3)c2c1`, the pEC50 in series [1] was 8.55.
Regarding `O=C(O)c1ccc2nc(CN3CCC(c4cccc(OCc5ccc(C6COC6)cn5)n4)CC3)n(C[C@@H]3CCO3)c2c1`, the half-life in series [2] was found to be 0.717 h.
Turning to `O=C(O)c1ccc2nc(CN3CCC(c4cccc(OCC5CCN(C6COC6)CC5)n4)CC3)n(C[C@@H]3CCO3)c2c1`, the pEC50 in series [1] was 7.48.
Take `COc1cc(C2COC2)ccc1COc1cccc(C2CCN(Cc3nc4ccc(C(=O)O)cc4n3C[C@@H]3CCO3)CC2)n1`: in series [2], the half-life amounted to 2.56 h.
In the case of `CCC(=O)c1ccc(COc2cccc(C3CCN(Cc4nc5ccc(C(=O)O)cc5n4C[C@@H]4CCO4)CC3)n2)c(F)c1`, the pEC50 in series [1] is 9.02.
The same measure, in the same setting: then `O=C(O)c1ccc2nc(CN3CCC(c4cccc(OCc5ccc(C6COC6)cc5F)n4)CC3)n(CC3(F)CCC3)c2c1`, with 7.41.

Values taken from ChEMBL document CHEMBL5579877, “Design and Evaluation of 3-Phenyloxetane Derivative Agonists of the Glucagon-Like Peptide-1 Receptor” (J Med Chem, 2024).
